# ChEMBL document CHEMBL1201862, “PubChem BioAssay data set” (2004)
#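 Test compounds were applied to cells in 96-well plates for 48 hours at 5 doses. GI50 = concentration required for 50% inhibition of growth.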 Active and inactive are the calls of the source. No stated cut-off is given here; in the data, active = GI50 up to about 1.1 µM and inactive = higher.
# Legend:
# Experiment in all cases: NCI-60 cell line screen, 48 h
# CCRF-CEM = test system: CCRF-CEM
# T47D = test system: T47D
# 786-0 = test system: 786-0
# HCT-116 = test system: HCT-116
# OVCAR-4 = test system: OVCAR-4
# SR = test system: SR
# SF-295 = test system: SF-295
# LOX IMVI = test system: LOX IMVI
# HL-60 = test system: HL-60
# OVCAR-5 = test system: OVCAR-5
# BT-549 = test system: BT-549
# OVCAR-3 = test system: OVCAR-3
# NCI-H460 = test system: NCI-H460
# UACC-257 = test system: UACC-257
# K562 = test system: K562
# SNB-75 = test system: SNB-75
# SF-539 = test system: SF-539
# MDA-N = test system: MDA-N
# Malme-3M = test system: Malme-3M
# MDA-MB-231 = test system: MDA-MB-231
SMILES,GI50 (CCRF-CEM),GI50 (T47D),GI50 (786-0),GI50 (HCT-116),GI50 (OVCAR-4),GI50 (SR),GI50 (SF-295),GI50 (LOX IMVI),GI50 (HL-60),GI50 (OVCAR-5),GI50 (BT-549),GI50 (OVCAR-3),GI50 (NCI-H460),GI50 (UACC-257),GI50 (K562),GI50 (SNB-75),GI50 (SF-539),GI50 (MDA-N),GI50 (Malme-3M),GI50 (MDA-MB-231)
c1ccc(CSc2nnc3c4ccccc4c4ccccc4c3n2)cc1,27.7 µM (inactive),34.1 µM (inactive),34.8 µM (inactive),> 82.4 µM (inactive),48.1 µM (inactive),30.2 µM (inactive),23.2 µM (inactive),62.7 µM (inactive),> 36.2 µM (inactive),> 100 µM (inactive),50 µM (inactive),21.7 µM (inactive),> 88.3 µM (inactive),> 100 µM (inactive),14.8 µM (inactive),8.73 µM (inactive),31.4 µM (inactive),56.1 µM (inactive),86.1 µM (inactive),35.2 µM (inactive)
NC(CC(=O)O)(Cc1ccccc1)C(=O)O (stereo not given),> 100 µM (inactive),> 100 µM (inactive),> 100 µM (inactive),> 100 µM (inactive),> 100 µM (inactive),> 100 µM (inactive),> 100 µM (inactive),> 100 µM (inactive),> 100 µM (inactive),> 100 µM (inactive),> 100 µM (inactive),> 100 µM (inactive),> 100 µM (inactive),> 100 µM (inactive),> 100 µM (inactive),> 100 µM (inactive),> 100 µM (inactive),> 100 µM (inactive),> 100 µM (inactive),> 100 µM (inactive)
CSc1ncnc2c1ncn2C1OC(CO)C(O)OC1O (stereo not given),0.0579 µM (active),0.612 µM (active),0.785 µM (active),0.4 µM (active),10.7 µM (inactive),0.619 µM (active),13.6 µM (inactive),0.361 µM (active),1.97 µM (inactive),2.01 µM (inactive),1.83 µM (inactive),0.348 µM (active),0.424 µM (active),0.902 µM (active),1.16 µM (inactive),10.9 µM (inactive),1.73 µM (inactive),2.24 µM (inactive),14 µM (inactive),0.396 µM (active)
Cc1nc(-c2ccc(Cl)cc2)cn2c1nc1ccccc12,23.5 µM (inactive),0.955 µM (active),> 100 µM (inactive),> 100 µM (inactive),> 100 µM (inactive),90.6 µM (inactive),> 100 µM (inactive),> 100 µM (inactive),> 31.6 µM (inactive),> 31 µM (inactive),> 93.5 µM (inactive),> 100 µM (inactive),> 100 µM (inactive),> 100 µM (inactive),> 72.3 µM (inactive),> 100 µM (inactive),> 61.4 µM (inactive),> 100 µM (inactive),> 100 µM (inactive),> 100 µM (inactive)
CCOc1cc(-c2nc3ccccn3c2/N=C/c2cc(Br)ccc2O)ccc1O,> 100 µM (inactive),2.37 µM (inactive),25.1 µM (inactive),30.8 µM (inactive),14.1 µM (inactive),35.6 µM (inactive),58.2 µM (inactive),23.2 µM (inactive),15 µM (inactive),73.5 µM (inactive),29.6 µM (inactive),9.29 µM (inactive),58.3 µM (inactive),18.1 µM (inactive),24.2 µM (inactive),5.62 µM (inactive),29.6 µM (inactive),46.1 µM (inactive),41.1 µM (inactive),30.5 µM (inactive)
C[N+](C)(C)CC(=O)N/N=C(\C(=O)NC1=C(Cl)C(=O)c2ccccc2C1=O)C(C#N)c1nc(-c2ccc([N+](=O)[O-])cc2)cs1 (stereo not given),8.28 µM (inactive),5.85 µM (inactive),8.63 µM (inactive),5.78 µM (inactive),10.1 µM (inactive),5.62 µM (inactive),6.37 µM (inactive),1.69 µM (inactive),5.73 µM (inactive),13.1 µM (inactive),3.77 µM (inactive),1.02 µM (active),4.31 µM (inactive),3.18 µM (inactive),10.8 µM (inactive),7.23 µM (inactive),8.38 µM (inactive),1.74 µM (inactive),1.86 µM (inactive),10.3 µM (inactive)
O=C1/C(=C/c2ccc3c(c2)OCO3)CCC1CN1CCOCC1 (stereo not given),1.54 µM (inactive),3.98 µM (inactive),5.42 µM (inactive),3.25 µM (inactive),6.73 µM (inactive),1.65 µM (inactive),18.2 µM (inactive),2.44 µM (inactive),1.44 µM (inactive),14 µM (inactive),18 µM (inactive),7.93 µM (inactive),17.4 µM (inactive),9.68 µM (inactive),2.03 µM (inactive),14.6 µM (inactive),13 µM (inactive),2.04 µM (inactive),7.31 µM (inactive),3.36 µM (inactive)
O=C(O)CP(=O)(O)O,> 100 µM (inactive),> 100 µM (inactive),> 100 µM (inactive),> 100 µM (inactive),> 100 µM (inactive),> 100 µM (inactive),> 100 µM (inactive),> 100 µM (inactive),> 100 µM (inactive),> 100 µM (inactive),> 100 µM (inactive),> 100 µM (inactive),> 100 µM (inactive),> 100 µM (inactive),> 100 µM (inactive),> 100 µM (inactive),> 100 µM (inactive),> 100 µM (inactive),> 100 µM (inactive),> 100 µM (inactive)
O=C(/C=C/c1ccc(O)c(-c2cc(C(=O)/C=C/c3ccc(O)cc3)c(O)cc2O)c1)c1ccc(O)cc1O [RHUSCHALCONE VI],10.1 µM (inactive),33.3 µM (inactive),47.6 µM (inactive),11.5 µM (inactive),17.9 µM (inactive),11.4 µM (inactive),37.5 µM (inactive),14.5 µM (inactive),17.3 µM (inactive),> 50 µM (inactive),15.5 µM (inactive),16.2 µM (inactive),> 50 µM (inactive),> 50 µM (inactive),13.6 µM (inactive),13.3 µM (inactive),11.7 µM (inactive),18.3 µM (inactive),22.1 µM (inactive),29.7 µM (inactive)
